Patent US20100069415A1, “2,6-DIPHENYL-4,8-DIAZOADAMANTAN-1-ONE AND DERIVATIVES THEREOF, PROCESS OF MANUFACTURE AND USE FOR THE FORMULATION OF SOLUTIONS WITH STERILIZING AND DISINFECTANT EFFECT” (PIETRO AFFAITATI, priority 2006, published 2010)

Assay: Solubility characterization of 2,6-diphenyl-4,8-diazoadamantan-1-one
Type: physicochemical
Text: This molecule is soluble in propylene glycol and apolar organic solvents, whereas it is insoluble in water and ethanol.

2,6-diphenyl-4,8-diazoadamantan-1-one
solubility in apolar organic solvents (solvent: apolar organic solvents): soluble | solubility in ethanol (solvent: ethanol): insoluble | solubility in propylene glycol (solvent: propylene glycol): soluble | solubility in water (solvent: water): insoluble
